According to PubChem BioAssay AID2060487 (Molecular Pharmacology Branch, DTP, NCI, 2025):
Values belong to the compound of their own block, whether it stands above or below them.

System: 997537-175-T-J1-PDC complex spheroid viability
Experiment: Anticancer human tumor 997537-175-T-J1-PDC patient-derived colon adenocarcinoma cell line growth inhibition [GQUAD]
Details: for IC50: curve of first compound; for viability, T/C: stronger effect = lower value
Text: DNA G-quadruplex Stabilizer Agents in Combinations in Complex Spheroids
A high-throughput screen of multi-cell type tumor spheroids was designed to identify active combinations of DNA G-quadruplex stabilizer agents and targeted small molecules. Complex spheroids include a stromal component modeled by human endothelial cells (HUVEC) and fibroblasts modeled by human mesenchymal stem cells (MSCs). The concentration ranges selected for each drug and investigational agent were based upon clinically achievable concentrations if the clinical Cmax of the agent was known.
Compounds. The drugs and investigational agents: pidnarulex (CX-5461; NSC782164), APTO-253 (NSC789042), BRACO-19 (NSC847499), peposertib (NSC802822), ceralasertib (NSC780249), elimusertib (NSC800525), camonsertib (NSC841442), AZD-1390 (NSC803789), olaparib (NSC753686), talazoparib (NSC767125), ART-558 (NSC835418), sotorasib (NSC818433), MRTX-1133 (NSC836407), SN-38 (NSC673596), topotecan (NSC609699), etoposide (NSC141540), doxorubicin (NSC123127), gemcitabine (NSC613327), 5-fluorouracil (NSC19893), paclitaxel (NSC125973), vemurafenib (NSC761431), panobinostat (NSC761190), R-306465 (JNJ-16241199; NSC773264), adavosertib (NSC754352), TP-3654 (NSC805149), carboplatin (NSC241240), KSQ-4279 (NSC840948), and staurosporine (NSC755774) were obtained from the National Cancer Institute (NCI) Developmental Therapeutics Program Chemical Repository (34). The FDA-approved anticancer drug set is available from the NCI Developmental Therapeutics Program. […] The stock solutions were prepared in dimethyl sulfoxide (DMSO, Sigma-Aldrich, St. Louis, MO, cat. D2650) at 800-fold the tested concentration and stored at -70 degrees C prior to their use. All drugs and investigational agents were tested over a range starting from a high concentration at or near the clinical Cmax and decreasing in half-log increments. If the clinical Cmax for an agent had not been determined, the highest concentration tested was 10 microM.
2.3 Cell Culture. All cells were maintained in an incubator at 37 degrees C and 5% CO2 with 95% humidity. The PDC lines were cultured according to standard operating procedures established by the NCI PDMR. All PDCs were thawed and cultured in Matrigel-coated flasks prepared with a working solution of 1X Ham's F-12 nutrient mix, without supplementation (Invitrogen, cat. 11765054), 100 U/mL penicillin-streptomycin (Invitrogen, cat. 15140122), and 2.5% Matrigel (Corning Inc., cat. 354248) for the first three passages. The 857933-349-R-J2-PDC line was cultured in 6C/Colon 1B media, which includes advanced DMEM/F-12 (Thermo Fisher Scientific, cat. 12634028), 10 mM HEPES (Thermo Fisher Scientific, cat. 15630080), 1X GlutaMAX supplement (Thermo Fisher Scientific, cat. 35050061), 0.1 mg/mL primocin (InvivoGen, cat. ant-pm-2), 10% defined fetal bovine serum, heat inactivated (HyClone Laboratories Inc., cat. SH30070.03HI), 50% L-WRN conditioned media (ATCC, cat. CRL-3276), 1.25 mM N-Acetyl-L-cysteine (Sigma-Aldrich, cat. A9165), 10 mM nicotinamide (Sigma-Aldrich, cat. N0636), 1X B-27 supplement (Thermo Fisher Scientific, cat. 17504044), 1X N-2 supplement (Thermo Fisher Scientific, cat. 17502048), 10 microM Y-27632 dihydrochloride (Tocris Bioscience, cat. 1254), and 50 ng/mL human EGF recombinant protein (Thermo Fisher Scientific, cat. PHG0311). The 485176-168-R4-J1-PDC line was cultured in Panc media, which includes all 6C/Colon 1B media components plus 100 ng/mL human FGF-10 (Thermo Fisher Scientific, cat. 100-26), 500 nM SB-431542 (Selleckchem, cat. S1067), and gastrin (Tocris, cat. 3006).
[…]

[1] = second compound 0.0316 µM, first compound 0.0316 µM
[2] = second compound 0.0316 µM, first compound 0.1 µM
[3] = second compound 0.0316 µM, first compound 0.316 µM
[4] = second compound 0.0316 µM, first compound 1 µM
[5] = second compound 0.0316 µM, first compound 3.16 µM
[6] = second compound 0.0316 µM, first compound 10 µM
[7] = second compound 0.1 µM, first compound 0.0316 µM
[8] = second compound 0.1 µM, first compound 0.1 µM
[9] = second compound 0.1 µM, first compound 0.316 µM
[10] = second compound 0.1 µM, first compound 1 µM
[11] = second compound 0.1 µM, first compound 3.16 µM
[12] = second compound 0.1 µM, first compound 10 µM
[13] = second compound 0.316 µM, first compound 0.0316 µM
[14] = second compound 0.316 µM, first compound 0.1 µM
[15] = second compound 0.316 µM, first compound 0.316 µM
[16] = second compound 0.316 µM, first compound 1 µM
[17] = second compound 0.316 µM, first compound 3.16 µM
[18] = second compound 0.316 µM, first compound 10 µM
[19] = second compound 1 µM, first compound 0.0316 µM
[20] = second compound 1 µM, first compound 0.1 µM
[21] = second compound 1 µM, first compound 0.316 µM
[22] = second compound 1 µM, first compound 1 µM
[23] = second compound 1 µM, first compound 3.16 µM
[24] = second compound 1 µM, first compound 10 µM
[25] = second compound 3.16 µM, first compound 0.0316 µM
[26] = second compound 3.16 µM, first compound 0.1 µM
[27] = second compound 3.16 µM, first compound 0.316 µM
[28] = second compound 3.16 µM, first compound 1 µM
[29] = second compound 3.16 µM, first compound 3.16 µM
[30] = second compound 3.16 µM, first compound 10 µM
[31] = second compound 10 µM, first compound 0.0316 µM
[32] = second compound 10 µM, first compound 0.1 µM
[33] = second compound 10 µM, first compound 0.316 µM
[34] = second compound 10 µM, first compound 1 µM
[35] = second compound 10 µM, first compound 3.16 µM
[36] = second compound 10 µM, first compound 10 µM
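Also: spheroids exposed to the agents for 7 days.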
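For viability, T/C in this document: 100% = DMSO vehicle control viability.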

Structure (SMILES): COc1ncnc(C2CC2)c1-c1ncc2cnn(Cc3ccc(-c4nc(C(F)(F)F)cn4C(C)C)cc3)c2n1 + Cc1[nH]c2ccc(F)cc2c1-c1nc2c3cccnc3c3ncccc3c2[nH]1
IC50 (second compound 0.0316 µM): 9.19 µM
IC50 (second compound 0.1 µM): > 10 µM
IC50 (second compound 0.316 µM): > 10 µM
IC50 (second compound 1 µM): 9.26 µM
IC50 (second compound 3.16 µM): 8.15 µM
IC50 (second compound 10 µM): > 10 µM
viability, T/C [1]: 100%
viability, T/C [2]: 98.9%
viability, T/C [3]: 103%
viability, T/C [4]: 93.1%
viability, T/C [5]: 98.8%
viability, T/C [6]: 46.2%
viability, T/C [7]: 100%
viability, T/C [8]: 107%
viability, T/C [9]: 102%
viability, T/C [10]: 96.3%
viability, T/C [11]: 87.9%
viability, T/C [12]: 70.5%
viability, T/C [13]: 104%
viability, T/C [14]: 101%
viability, T/C [15]: 100%
viability, T/C [16]: 96.7%
viability, T/C [17]: 91.8%
viability, T/C [18]: 50.9%
viability, T/C [19]: 91.7%
viability, T/C [20]: 103%
viability, T/C [21]: 101%
viability, T/C [22]: 93%
viability, T/C [23]: 92.8%
viability, T/C [24]: 46.8%
viability, T/C [25]: 83.1%
viability, T/C [26]: 86.5%
viability, T/C [27]: 87.2%
viability, T/C [28]: 84.2%
viability, T/C [29]: 76.7%
viability, T/C [30]: 44.2%
viability, T/C [31]: 85.3%
viability, T/C [32]: 87.8%
viability, T/C [33]: 89.1%
viability, T/C [34]: 89.5%
viability, T/C [35]: 72.9%
viability, T/C [36]: 59.6%

IC50 (second compound 0.0316 µM): 0.0848 µM
IC50 (second compound 0.1 µM): < 0.0316 µM
IC50 (second compound 0.316 µM): 0.081 µM
IC50 (second compound 1 µM): < 0.0316 µM
IC50 (second compound 3.16 µM): > 10 µM
IC50 (second compound 10 µM): 3.61 µM
Structure (SMILES): CC1COCCN1c1cc(C2(O)CC3CCC(C2)O3)c2cnn(-c3ccn[nH]3)c2n1 (stereo not drawn) + Cc1cnc(CNC(=O)c2c(=O)c3ccc(N4CCCN(C)CC4)nc3n3c2sc2ccccc23)cn1
viability, T/C [1]: 64%
viability, T/C [2]: 52.9%
viability, T/C [3]: 33.3%
viability, T/C [4]: 38.8%
viability, T/C [5]: 42.9%
viability, T/C [6]: 44.8%
viability, T/C [7]: 51.1%
viability, T/C [8]: 49%
viability, T/C [9]: 37.5%
viability, T/C [10]: 27.6%
viability, T/C [11]: 41.2%
viability, T/C [12]: 58.5%
viability, T/C [13]: 53%
viability, T/C [14]: 52.3%
viability, T/C [15]: 35.7%
viability, T/C [16]: 57.1%
viability, T/C [17]: 43%
viability, T/C [18]: 43.4%
viability, T/C [19]: 47.9%
viability, T/C [20]: 42.6%
viability, T/C [21]: 38.4%
viability, T/C [22]: 42.9%
viability, T/C [23]: 62.7%
viability, T/C [24]: 28.6%
viability, T/C [25]: 48.6%
viability, T/C [26]: 56.9%
viability, T/C [27]: 62.7%
viability, T/C [28]: 41.8%
viability, T/C [29]: 54.2%
viability, T/C [30]: 53%
viability, T/C [31]: 59.5%
viability, T/C [32]: 63.1%
viability, T/C [33]: 55.8%
viability, T/C [34]: 53.9%
viability, T/C [35]: 53.1%
viability, T/C [36]: 42.4%

IC50 (second compound 0.0316 µM): 3.67 µM
IC50 (second compound 0.1 µM): 8.64 µM
IC50 (second compound 0.316 µM): > 10 µM
IC50 (second compound 1 µM): > 10 µM
IC50 (second compound 3.16 µM): > 10 µM
IC50 (second compound 10 µM): > 10 µM
Structure (SMILES): CC1COCCN1c1cc(C2(S(C)(=N)=O)CC2)nc(-c2ccnc3[nH]ccc23)n1 (stereo not drawn) + Cc1cnc(CNC(=O)c2c(=O)c3ccc(N4CCCN(C)CC4)nc3n3c2sc2ccccc23)cn1
viability, T/C [1]: 105%
viability, T/C [2]: 88.9%
viability, T/C [3]: 84.8%
viability, T/C [4]: 56.8%
viability, T/C [5]: 54.9%
viability, T/C [6]: 41.7%
viability, T/C [7]: 91.4%
viability, T/C [8]: 90.4%
viability, T/C [9]: 83.9%
viability, T/C [10]: 65.9%
viability, T/C [11]: 72.3%
viability, T/C [12]: 45.2%
viability, T/C [13]: 89.5%
viability, T/C [14]: 92.8%
viability, T/C [15]: 80.6%
viability, T/C [16]: 60.3%
viability, T/C [17]: 55.4%
viability, T/C [18]: 53.4%
viability, T/C [19]: 86.7%
viability, T/C [20]: 82.5%
viability, T/C [21]: 69.6%
viability, T/C [22]: 65.8%
viability, T/C [23]: 84.7%
viability, T/C [24]: 83.7%
viability, T/C [25]: 65.4%
viability, T/C [26]: 83.7%
viability, T/C [27]: 104%
viability, T/C [28]: 78.2%
viability, T/C [29]: 59.3%
viability, T/C [30]: 69%
viability, T/C [31]: 74.8%
viability, T/C [32]: 71.4%
viability, T/C [33]: 91.8%
viability, T/C [34]: 68.3%
viability, T/C [35]: 85.4%
viability, T/C [36]: 85.8%

IC50 (second compound 0.0316 µM): > 10 µM
IC50 (second compound 0.1 µM): > 10 µM
IC50 (second compound 0.316 µM): > 10 µM
IC50 (second compound 1 µM): 9.86 µM
IC50 (second compound 3.16 µM): > 10 µM
IC50 (second compound 10 µM): > 10 µM
Structure (SMILES): COc1ccc([C@@H](O)c2cc(-c3ncnc4cc(N5CCOCC5)ccc34)c(F)cc2Cl)nn1 + Cc1cnc(CNC(=O)c2c(=O)c3ccc(N4CCCN(C)CC4)nc3n3c2sc2ccccc23)cn1
viability, T/C [1]: 102%
viability, T/C [2]: 93.6%
viability, T/C [3]: 100%
viability, T/C [4]: 63.3%
viability, T/C [5]: 81.1%
viability, T/C [6]: 63.9%
viability, T/C [7]: 97.5%
viability, T/C [8]: 94.7%
viability, T/C [9]: 73.9%
viability, T/C [10]: 84.7%
viability, T/C [11]: 77.2%
viability, T/C [12]: 86.9%
viability, T/C [13]: 87.3%
viability, T/C [14]: 106%
viability, T/C [15]: 107%
viability, T/C [16]: 94.8%
viability, T/C [17]: 113%
viability, T/C [18]: 65.2%
viability, T/C [19]: 82.3%
viability, T/C [20]: 87.5%
viability, T/C [21]: 89.3%
viability, T/C [22]: 87.8%
viability, T/C [23]: 98.1%
viability, T/C [24]: 49.5%
viability, T/C [25]: 81.7%
viability, T/C [26]: 88.8%
viability, T/C [27]: 98.1%
viability, T/C [28]: 107%
viability, T/C [29]: 98.2%
viability, T/C [30]: 71.2%
viability, T/C [31]: 85.5%
viability, T/C [32]: 75.9%
viability, T/C [33]: 86.3%
viability, T/C [34]: 117%
viability, T/C [35]: 86.9%
viability, T/C [36]: 72.8%
